Results as given in US20080064871A1, “Production Method of Nitrogen-Containing Fused Ring Compounds” (Japan Tobacco Inc., priority 2006, published 2008).

Columns and labels:
human URAT1 = target: T1, human URAT1 (Homo sapiens, UniProt Q96S37); assay: Uric acid transport inhibitory test using human URAT1-expressing cells; assay type: cell-based; settings: human URAT1 expressing HEK293 cells, uptake of 14C-labeled uric acid for 5 min, room temperature; read-out: hURAT1 (IC50, concentration necessary for inhibiting the uric acid transport rate by 50%)
T1 construct: Human URAT1 full length cDNA was subcloned to expression vector pcDNA3.1; expressed in transfected cells; host or cells: HEK293 cells (pcDNA3.1, geneticin-selected)
T1 sequence (Q96S37 1-553): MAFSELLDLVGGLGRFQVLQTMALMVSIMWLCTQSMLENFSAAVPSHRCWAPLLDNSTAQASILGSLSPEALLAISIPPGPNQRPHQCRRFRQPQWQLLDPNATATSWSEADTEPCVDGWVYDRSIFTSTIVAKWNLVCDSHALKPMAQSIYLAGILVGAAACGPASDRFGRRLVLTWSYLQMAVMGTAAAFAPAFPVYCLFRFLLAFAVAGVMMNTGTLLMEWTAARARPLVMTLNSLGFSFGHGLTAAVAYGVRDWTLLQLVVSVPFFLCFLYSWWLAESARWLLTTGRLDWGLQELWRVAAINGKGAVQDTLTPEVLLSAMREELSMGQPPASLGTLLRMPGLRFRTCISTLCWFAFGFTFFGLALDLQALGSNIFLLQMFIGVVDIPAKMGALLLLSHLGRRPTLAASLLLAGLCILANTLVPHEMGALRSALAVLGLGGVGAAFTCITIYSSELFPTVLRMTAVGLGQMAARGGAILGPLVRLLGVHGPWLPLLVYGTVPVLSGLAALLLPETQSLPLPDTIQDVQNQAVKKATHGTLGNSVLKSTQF
Text: Reference Experimental Example 1 Uric Acid Transport Inhibitory Test Using Human Urat1-Expressing Cells
Human URAT1 full length cDNA was subcloned to expression vector pcDNA3.1 and human URAT1 gene was transfected into human embryonic kidney derived cell line (HEK293 cells) by liposome method using Lipofectamine2000. Simultaneously, HEK293 cells transfected with expression vector pcDNA3.1 alone (hereinafter mock cells) were also produced. HEK293 cells expressing human URAT1 gene or mock cells were selected with geneticin resistance as an index. The functional expression of human URAT1 gene was confirmed by a method similar to the following method, using transport of uric acid labeled with ^14C into the cells as an index.
Human URAT1 expressing HEK293 cells or mock cells were cultured in Dulbecco's modified Eagle's MEM medium (high glucose) containing 10% fetal bovine serum, 0.5 mg/mL geneticin sulfate, 100 units/mL penicillin and 100 μg/mL streptomycin under the conditions of 37° C. and 5% CO2 in an incubator. The cells were plated in a 96 well plate (poly-D-Lysine coated) at 1×10^5 cells/well and the following uric acid transport inhibitory test was performed 24 hr later. This test was performed at room temperature.
After the medium was removed by aspiration from each well, the cells were washed once with Hank's Balanced Salt Solution (HBSS) and preincubated with HBSS ([…]) for 5 min. HBSS was aspirated and an assay buffer (wherein NaCl in the above-mentioned HBSS had been substituted with Na-gluconate) containing various concentrations of the Example compound and a radioactive ligand (uric acid labeled with 14C; final concentration […]) was added to each well at […] and an uptake reaction was carried out for 5 min. After the reaction, the cells were washed twice with ice-cold HBSS ([…]), and Microscin ti TM 20 (PerkinElmer) was added at […]. The cells were lysed by stirring and the radioactivity of each well was measured in a liquid scintillation counter (TOP COUNT, Packard).
The uric acid transport rate (%) of the Example compound at each concentration was calculated relative to the radioactivity (difference in radioactivity between human URAT1 expressing HEK293 cells and mock cells without addition of Example compound (DMSO addition)) showing URAT1 specific uric acid transport as 100%, and the concentration (IC50) of the Example compound necessary for inhibiting the uric acid transport rate by 50% was determined. In Table-Table, “+++” means IC50 value of less than 100 nM, “++” means IC50 value of 100 nM to less than 1000 nM, and “+” means IC50 value of 1000 nM to less than 3000 nM.

CYP2C9 = target: T2, CYP2C9 (Homo sapiens, UniProt P11712); assay: CYP inhibitory test using human liver microsome; assay type: in vitro ADME; settings: human liver microsomes, pH 7.4, probe diclofenac, model substrate diclofenac, 37° C. 10 min, LC/MS/MS, read-out: CYP2C9 inhibition IC50
T2 construct: Human liver microsome (20 mg protein/mL, 5 μL, Xenotech LLC, purchased from Lenexa Kans.); tissue Xenotech LLC; host or cells: human liver microsome
Experimental: Reference Experimental Example 2 Cyp Inhibitory Test Using Human Liver Microsome
Human liver microsome (20 mg protein/mL, 5 μL, Xenotech LLC, purchased from Lenexa Kans.) was suspended in 100 mM potassium phosphate buffer (70 μL, pH 7.4), mixed with a solution (0.5 μL) of the Example compound dissolved in DMSO and preincubated at 37° C. for 5 min. NADPH producing system coenzyme solution (β-nicotinamide adenine dinucleotide phosphate: 5.2 mM, D-glucose-6-phosphate: 13.2 mM, magnesium chloride: 13.2 mM, glucose-6-phosphate dehydrogenase: 1.8 U/mL) 25 μL, and a model substrate (CYP3A4: midazolam 1 mM, CYP2D6: bufuralol 1 mM, CYP2C9: diclofenac 2 mM) 0.5 μL dissolved in DMSO were added to start the reaction. After incubation at 37° C. for 10 min., acetonitrile (200 μL) containing an internal standard substance (propranolol 1 μM) was added and the mixture was centrifuged (room temperature, 3000 rpm, 20 min). The amount of the metabolite produced from each model substrate in the supernatant was measured by high performance liquid chromatography/mass spectrometry (LC/MS/MS) and each CYP enzyme activity was determined. The concentration showing 50% inhibition (IC50) was calculated relative to the enzyme activity without addition of Example compound (DMSO 0.5 μL added) as 100%.

T2 sequence (P11712 whole entry): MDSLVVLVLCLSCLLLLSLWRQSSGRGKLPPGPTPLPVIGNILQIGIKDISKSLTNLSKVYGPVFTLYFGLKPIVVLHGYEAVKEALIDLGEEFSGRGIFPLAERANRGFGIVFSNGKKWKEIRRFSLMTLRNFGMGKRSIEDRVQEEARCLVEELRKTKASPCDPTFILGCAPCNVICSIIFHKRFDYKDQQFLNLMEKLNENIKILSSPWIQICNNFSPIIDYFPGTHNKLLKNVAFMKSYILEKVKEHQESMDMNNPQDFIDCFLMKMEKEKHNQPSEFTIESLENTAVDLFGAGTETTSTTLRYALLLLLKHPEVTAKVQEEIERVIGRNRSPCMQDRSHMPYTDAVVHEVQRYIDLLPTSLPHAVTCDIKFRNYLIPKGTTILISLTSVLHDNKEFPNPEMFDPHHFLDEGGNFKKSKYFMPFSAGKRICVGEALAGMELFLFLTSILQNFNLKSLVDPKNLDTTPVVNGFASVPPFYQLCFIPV

Compound `O=C(c1cc(Cl)c(O)c(Cl)c1)N1CCOc2ccc(C(F)(F)F)cc21` [Example 85, (3,5-dichloro-4-hydroxyphenyl)-(6-trifluoromethyl-2,3-dihydrobenzo[1,4]oxazin-4-yl)-methanone] has an IC50 (human URAT1) of less than 100 nM.

`COc1c(Cl)cc(C(=O)N2CCOc3ccccc32)cc1Cl` [Example 86, (3,5-dichloro-4-methoxyphenyl)-(2,3-dihydrobenzo[1,4]oxazin-4-yl)-methanone] was tested, and the IC50 (human URAT1) was 1000 to 3000 nM.

With `CC(=O)Oc1c(Cl)cc(C(=O)N2CCOc3ccccc32)cc1Cl` [Example 87, 2,6-dichloro-4-(2,3-dihydrobenzo[1,4]oxazine-4-carbonyl)-phenyl acetate] the IC50 (human URAT1) was 100 to 1000 nM.

In the case of `O=C(c1cc(Cl)c(O)c(Cl)c1)N1CCOc2cccc(O)c21` [Example 89, (3,5-dichloro-4-hydroxyphenyl)-(5-hydroxy-2,3-dihydrobenzo[1,4]oxazin-4-yl)-methanone], the IC50 (human URAT1) is reported as less than 100 nM.

`O=C(c1cc(Cl)c(O)c(Cl)c1)N1CCOc2c(O)cccc21` [Example 90, (3,5-dichloro-4-hydroxyphenyl)-(8-hydroxy-2,3-dihydrobenzo[1,4]oxazin-4-yl)-methanone] showed an IC50 (human URAT1) of 100 to 1000 nM.

Work on `CCOC(=O)COc1c(Cl)cc(C(=O)N2CCOc3ccccc32)cc1Cl` [Example 91, ethyl [2,6-dichloro-4-(2,3-dihydrobenzo[1,4]oxazine-4-carbonyl)phenoxy]acetate] yielded an IC50 (human URAT1) of 1000 to 3000 nM.

`O=C(c1cc(Cl)c(O)c(Cl)c1)N1CCCOc2ccccc21` [Example 94] showed an IC50 at 10 min (CYP2C9) of 6000 nM and an IC50 (human URAT1) of 100 to 1000 nM.

Compound `O=C(c1cc(Cl)c(O)c(Cl)c1)N1CCCOc2ccccc21` [Example 95, (3,5-dichloro-4-hydroxyphenyl)-(7,8-dihydro-6H-5-oxa-9-azabenzocyclohepten-9-yl)-methanone] has an IC50 (human URAT1) of 100 to 1000 nM.
